Literature values as cited in US20160166510A1, “STABILIZED PROLONGED RELEASE PHARMACEUTICAL COMPOSITION COMPRISING ATYPICAL ANTIPSYCHOTIC” (INVENTIA HEALTHCARE PRIVATE LIMITED, priority 2010, published 2016).
Where two headings read alike, the source gives them in different places.

SMILES: Cc1nc2n(c(=O)c1CCN1CCC(c3noc4cc(F)ccc34)CC1)CCCC2O (stereo not drawn) [Paliperidone]
- Solubility (in 0.1 N HCl): sparingly soluble
- Solubility (in methylene chloride): sparingly soluble
- Solubility (in water): practically insoluble
